From patent US20230151003A1, “COMPOUNDS AND METHODS OF USE” (Exelixis, Inc., priority 2020, published 2023)
Structures can show the parent of a compound that is named as a salt.

Columns and labels:
Mer = molecular target: T1, Mer (Homo sapiens, UniProt Q12866); assay: Mer autophosphorylation ELISA in transient transfected 293A cells; assay type: cell-based; settings: Table 3 Cellular Activities; MERTK-transfected 293A cells, phospho-Mer ELISA
T1 construct: host or cells: 293A cells (Thermo Fisher #R70507)
T1 sequence (Q12866 21-999): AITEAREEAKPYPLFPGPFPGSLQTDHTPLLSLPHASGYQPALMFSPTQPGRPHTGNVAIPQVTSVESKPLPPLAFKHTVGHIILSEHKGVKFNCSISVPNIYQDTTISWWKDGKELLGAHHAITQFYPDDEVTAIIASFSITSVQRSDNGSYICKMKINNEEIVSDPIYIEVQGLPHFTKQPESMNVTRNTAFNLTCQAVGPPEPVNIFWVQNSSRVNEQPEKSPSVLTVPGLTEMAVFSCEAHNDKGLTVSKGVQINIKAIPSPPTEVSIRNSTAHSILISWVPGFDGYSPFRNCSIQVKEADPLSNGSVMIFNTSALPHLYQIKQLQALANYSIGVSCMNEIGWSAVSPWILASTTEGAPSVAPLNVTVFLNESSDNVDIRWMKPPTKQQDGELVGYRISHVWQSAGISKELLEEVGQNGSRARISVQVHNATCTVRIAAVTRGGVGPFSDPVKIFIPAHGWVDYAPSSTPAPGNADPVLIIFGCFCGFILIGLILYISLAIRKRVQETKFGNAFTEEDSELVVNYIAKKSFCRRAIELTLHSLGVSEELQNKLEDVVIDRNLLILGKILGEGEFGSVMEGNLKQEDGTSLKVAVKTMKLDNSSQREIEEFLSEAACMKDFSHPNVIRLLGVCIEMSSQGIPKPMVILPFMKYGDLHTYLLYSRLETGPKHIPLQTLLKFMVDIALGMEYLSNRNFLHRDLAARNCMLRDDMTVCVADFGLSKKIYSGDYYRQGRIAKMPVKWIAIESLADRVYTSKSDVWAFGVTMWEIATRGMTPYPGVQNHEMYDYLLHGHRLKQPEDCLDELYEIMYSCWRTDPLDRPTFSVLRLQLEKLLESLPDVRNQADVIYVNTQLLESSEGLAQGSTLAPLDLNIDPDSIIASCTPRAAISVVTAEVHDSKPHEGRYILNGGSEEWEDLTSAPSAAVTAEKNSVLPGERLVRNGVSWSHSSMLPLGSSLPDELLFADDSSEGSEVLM
Method in brief: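 Phospho-Mer quantified by ELISA in lysates of transiently MERTK-transfected 293A cells after 1 h exposure to an 8-point compound series, serum-free, 0.3% DMSO. Activity normalized between DMSO-treated (100%) and reference inhibitor-treated (0%) lysates; IC50 via 4-parameter nonlinear regression.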

KDR = KDR (Homo sapiens, UniProt P35968); assay: KDR autophosphorylation ELISA in HUVEC cells; assay type: cell-based; design: endogenous in cells; host or cells: HUVEC (Lonza #C2519A); settings: Table 3 Cellular Activities, VEGF165-stimulated, phospho-KDR ELISA
Method in brief: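 Compound pretreatment (1 h, 0.3% DMSO) of serum-starved HUVEC preceded a 5 min pulse of 100 ng/mL VEGF165, after which cells were lysed. Phospho-KDR was quantified by ELISA relative to stimulated and unstimulated controls.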

KDR, sequence (P35968 20-1356): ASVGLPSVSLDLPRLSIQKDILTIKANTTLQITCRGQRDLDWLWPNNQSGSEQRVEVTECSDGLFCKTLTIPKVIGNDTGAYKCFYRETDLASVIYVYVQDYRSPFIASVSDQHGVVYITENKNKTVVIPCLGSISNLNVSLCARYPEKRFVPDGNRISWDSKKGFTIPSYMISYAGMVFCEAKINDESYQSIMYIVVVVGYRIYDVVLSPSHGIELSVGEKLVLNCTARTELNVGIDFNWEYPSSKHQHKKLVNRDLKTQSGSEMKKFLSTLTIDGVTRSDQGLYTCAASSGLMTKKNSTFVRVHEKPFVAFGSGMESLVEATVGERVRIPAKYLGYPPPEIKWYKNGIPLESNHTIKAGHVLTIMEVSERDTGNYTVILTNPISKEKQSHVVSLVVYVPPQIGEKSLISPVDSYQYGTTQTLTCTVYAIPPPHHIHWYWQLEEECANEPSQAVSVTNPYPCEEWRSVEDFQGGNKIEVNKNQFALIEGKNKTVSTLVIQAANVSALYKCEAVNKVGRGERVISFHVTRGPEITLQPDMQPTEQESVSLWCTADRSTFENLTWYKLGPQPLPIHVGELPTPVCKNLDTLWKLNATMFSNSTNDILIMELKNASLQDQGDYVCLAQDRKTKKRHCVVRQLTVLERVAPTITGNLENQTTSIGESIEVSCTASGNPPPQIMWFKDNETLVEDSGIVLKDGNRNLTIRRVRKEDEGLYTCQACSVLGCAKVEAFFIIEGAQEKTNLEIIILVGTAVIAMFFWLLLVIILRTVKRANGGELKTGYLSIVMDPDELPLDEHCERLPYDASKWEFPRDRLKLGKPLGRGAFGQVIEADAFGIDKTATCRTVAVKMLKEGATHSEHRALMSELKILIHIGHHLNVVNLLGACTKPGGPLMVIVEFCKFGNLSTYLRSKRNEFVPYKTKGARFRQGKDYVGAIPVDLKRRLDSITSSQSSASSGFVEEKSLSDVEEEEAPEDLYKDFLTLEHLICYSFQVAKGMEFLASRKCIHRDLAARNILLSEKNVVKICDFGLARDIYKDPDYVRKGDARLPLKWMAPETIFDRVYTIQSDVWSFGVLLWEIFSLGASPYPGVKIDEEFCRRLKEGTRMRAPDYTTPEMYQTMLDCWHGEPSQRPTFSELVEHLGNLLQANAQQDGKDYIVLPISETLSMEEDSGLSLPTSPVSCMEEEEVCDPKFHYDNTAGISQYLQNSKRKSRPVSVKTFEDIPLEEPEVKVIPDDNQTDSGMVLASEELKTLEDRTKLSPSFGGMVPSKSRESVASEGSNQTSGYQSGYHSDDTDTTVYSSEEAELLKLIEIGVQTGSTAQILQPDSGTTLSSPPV

Row | SMILES | IC50 (Mer) [nM] | IC50 (KDR) [nM]
1 | COc1ccc2nccc(Oc3ccc(NC(=O)c4ccc(C)n(-c5ccc(F)cn5)c4=O)cc3F)c2c1 [Compound 49, N-[3-Fluoro-4-(6-methoxyquinolin-4-yl)oxyphenyl]-1-(5-fluoropyridin-2-yl)-6-methyl-2-oxopyridine-3-carboxamide] | ≤ 100 | ≤ 100
2 | COc1cc2nccc(Oc3ccc(NC(=O)c4cc(C(C)=O)c(C)n(-c5ccoc5)c4=O)cc3F)c2nc1OC [Compound 235, 5-Acetyl-N-[4-[(6,7-dimethoxy-1,5-naphthyridin-4-yl)oxy]-3-fluorophenyl]-1-(furan-3-yl)-6-methyl-2-oxopyridine-3-carboxamide] | ≤ 100 | 300 to 1000
3 | COc1cc2nccc(Oc3ccc(NC(=O)c4c(C)ncc(-c5cccnc5)c4O)cc3F)c2nc1OC [Compound 228, N-[4-[(6,7-Dimethoxy-1,5-naphthyridin-4-yl)oxy]-3-fluorophenyl]-4-hydroxy-2-methyl-5-pyridin-3-ylpyridine-3-carboxamide] | ≤ 100 | ≤ 100
4 | COc1cc2nccc(Oc3ccc(NC(=O)c4ccc(C)n(-c5cccnn5)c4=O)cc3F)c2nc1OC [Compound 234, N-[4-[(6,7-Dimethoxy-1,5-naphthyridin-4-yl)oxy]-3-fluorophenyl]-6-methyl-2-oxo-1-pyridazin-3-ylpyridine-3-carboxamide] | ≤ 100 | 100 to 300
5 | COc1cc2nccc(Oc3ccc(NC(=O)c4c(C)cc(C)n(-c5ccc(F)cn5)c4=O)cc3)c2nc1OC [Compound 245, N-[4-[(6,7-Dimethoxy-1,5-naphthyridin-4-yl)oxy]phenyl]-1-(5-fluoropyridin-2-yl)-4,6-dimethyl-2-oxopyridine-3-carboxamide] | ≤ 100 | ≤ 100
6 | COc1cc2nccc(Oc3ccc(NC(=O)c4c5n(cc(-c6ccc(C)s6)c4=O)CCOC5)cc3F)c2nc1OC [Compound 304, N-[4-[(6,7-Dimethoxy-1,5-naphthyridin-4-yl)oxy]-3-fluorophenyl]-7-(5-methylthiophen-2-yl)-8-oxo-3,4-dihydro-1H-pyrido[2,1-c][1,4]oxazine-9-carboxamide] | ≤ 100 | 300 to 1000
7 | COc1cc2nccc(Oc3ccc(NC(=O)c4c5n(cc(-c6ccoc6)c4=O)CCOC5)cc3)c2nc1OC [Compound 310, N-[4-[(6,7-Dimethoxy-1,5-naphthyridin-4-yl)oxy]phenyl]-7-(furan-3-yl)-8-oxo-3,4-dihydro-1H-pyrido[2,1-c][1,4]oxazine-9-carboxamide] | ≤ 100 | 300 to 1000
8 | COc1cc2nccc(Oc3ccc(NC(=O)c4c(C)n(C)cc(-c5ccc(F)cn5)c4=O)cc3F)c2nc1OC [Compound 71, N-[4-[(6,7-Dimethoxy-1,5-naphthyridin-4-yl)oxy]-3-fluorophenyl]-5-(5-fluoropyridin-2-yl)-1,2-dimethyl-4-oxopyridine-3-carboxamide] | ≤ 100 | 300 to 1000
9 | COc1cc2nccc(Oc3ccc(NC(=O)c4cccn(-c5cc[n+]([O-])cc5)c4=O)cc3F)c2nc1OC [Compound 247, N-[4-[(6,7-Dimethoxy-1,5-naphthyridin-4-yl)oxy]-3-fluorophenyl]-1-(1-oxidopyridin-1-ium-4-yl)-2-oxopyridine-3-carboxamide hydrochloride] | ≤ 100 | 100 to 300
10 | CCOc1ccn(-c2ccc(F)cn2)c(=O)c1C(=O)Nc1ccc(Oc2ccnc3cc(OC)c(OC)nc23)c(F)c1 [Compound 243, N-[4-[(6,7-dimethoxy-1,5-naphthyridin-4-yl)oxy]-3-fluorophenyl]-4-ethoxy-1-(5-fluoropyridin-2-yl)-2-oxopyridine-3-carboxamide] | ≤ 100 | 100 to 300
11 | COc1cc2nccc(Oc3ccc(NC(=O)c4c5n(cc(-c6cc(C)cs6)c4=O)CCOC5)cc3)c2nc1OC [Compound 303, N-[4-[(6,7-Dimethoxy-1,5-naphthyridin-4-yl)oxy]phenyl]-7-(4-methylthiophen-2-yl)-8-oxo-3,4-dihydro-1H-pyrido[2,1-c][1,4]oxazine-9-carboxamide] | ≤ 100 | 300 to 1000
12 | COc1cc2nccc(Oc3ccc(NC(=O)c4ccc(C)n(-c5cc[n+]([O-])cc5)c4=O)cc3F)c2nc1OC [Compound 231, N-[4-[(6,7-Dimethoxy-1,5-naphthyridin-4-yl)oxy]-3-fluorophenyl]-6-methyl-1-(1-oxidopyridin-1-ium-4-yl)-2-oxopyridine-3-carboxamide] | ≤ 100 | 100 to 300
13 | COCCOc1cc2nccc(Oc3ccc(NC(=O)c4c(C)n(C)c(C)c(-c5coc6ccccc56)c4=O)cc3F)c2nc1OC [Compound 264, 5-(1-Benzofuran-3-yl)-N-[3-fluoro-4-[[6-methoxy-7-(2-methoxyethoxy)-1,5-naphthyridin-4-yl]oxy]phenyl]-1,2,6-trimethyl-4-oxopyridine-3-carboxamide] | ≤ 100 | 300 to 1000
14 | COc1cc(-n2c(C)ccc(C(=O)Nc3ccc(Oc4ccnc5cc(OC)c(OC)nc45)c(F)c3)c2=O)ccn1 [Compound 226, N-[4-[(6,7-Dimethoxy-1,5-naphthyridin-4-yl)oxy]-3-fluorophenyl]-1-(2-methoxypyridin-4-yl)-6-methyl-2-oxopyridine-3-carboxamide] | ≤ 100 | ≤ 100
15 | COc1cc2nccc(Oc3ccc(NC(=O)c4c5n(cc(-c6ccco6)c4=O)CCOC5)cc3)c2nc1OC [Compound 298, N-[4-[(6,7-Dimethoxy-1,5-naphthyridin-4-yl)oxy]phenyl]-7-(furan-2-yl)-8-oxo-3,4-dihydro-1H-pyrido[2,1-c][1,4]oxazine-9-carboxamide] | ≤ 100 | 300 to 1000
16 | COc1cc2nccc(Oc3ccc(NC(=O)c4c(C)ncc(-c5ccc(F)cn5)c4O)cc3F)c2nc1OC [Compound 68, N-[4-[(6,7-Dimethoxy-1,5-naphthyridin-4-yl)oxy]-3-fluorophenyl]-5-(5-fluoropyridin-2-yl)-4-hydroxy-2-methylpyridine-3-carboxamide] | ≤ 100 | ≤ 100
17 | COc1cc2nccc(Oc3ccc(NC(=O)c4ccc(C)n(-c5ccnc(C)c5)c4=O)cc3F)c2nc1OC [Compound 230, N-[4-[(6,7-Dimethoxy-1,5-naphthyridin-4-yl)oxy]-3-fluorophenyl]-6-methyl-1-(2-methylpyridin-4-yl)-2-oxopyridine-3-carboxamide] | ≤ 100 | ≤ 100
18 | COc1cnc2c(Oc3ccc(NC(=O)c4cc(C(C)=O)c(C)n(-c5ccco5)c4=O)cc3F)ccnc2c1 [Compound 238, 5-Acetyl-N-[3-fluoro-4-[(7-methoxy-1,5-naphthyridin-4-yl)oxy]phenyl]-1-(furan-2-yl)-6-methyl-2-oxopyridine-3-carboxamide] | 300 to 1000 | 300 to 1000
19 | COc1cc2nccc(Oc3ccc(NC(=O)c4cc(C#N)c(C)n(-c5ccc(F)cn5)c4=O)cc3F)c2nc1OC [Compound 56, 5-Cyano-N-[4-[(6,7-dimethoxy-1,5-naphthyridin-4-yl)oxy]-3-fluorophenyl]-1-(5-fluoropyridin-2-yl)-6-methyl-2-oxopyridine-3-carboxamide] | ≤ 100 | 300 to 1000
20 | COc1cc2nccc(Oc3ccc(NC(=O)c4c5n(c(C)c(-c6ccsc6)c4=O)CCOC5)cc3F)c2nc1OC [Compound 307, N-[4-[(6,7-Dimethoxy-1,5-naphthyridin-4-yl)oxy]-3-fluorophenyl]-6-methyl-8-oxo-7-thiophen-3-yl-3,4-dihydro-1H-pyrido[2,1-c][1,4]oxazine-9-carboxamide] | ≤ 100 | 100 to 300
21 | COc1cc2nccc(Oc3ccc(NC(=O)c4c5n(cc(-c6ccoc6)c4=O)CCOC5)cc3F)c2nc1OC [Compound 306, N-[4-[(6,7-Dimethoxy-1,5-naphthyridin-4-yl)oxy]-3-fluorophenyl]-7-(furan-3-yl)-8-oxo-3,4-dihydro-1H-pyrido[2,1-c][1,4]oxazine-9-carboxamide] | ≤ 100 | 300 to 1000
